Test results: patent publication US20230085307A1, “PYRIDAZINONE COMPOUND AND HERBICIDE” (NISSAN CHEMICAL CORPORATION, priority 2019, published 2023)

Legend:
persian speedwell [1] = test: Test Example 5: herbicidal effect by foliage application, plastic box (Table 20, symbol R); assay type: in vivo, Persian speedwell (Veronica persica); conditions: foliage application, 320 g/ha, three weeks after application
Procedure, shortened: (§1)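 Post-emergence foliar test in sterilized diluvial soil. Compound applied as water-diluted emulsion at a predetermined rate to 14-day-old plants; evaluation at three weeks.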

velvetleaf [2] = test: Test Example 4: herbicidal effect by soil treatment (Table 19, symbol M); assay type: in vivo, velvetleaf (Abutilon theophrasti); conditions: amount of applied herbicide 320 g/ha
Procedure, shortened: (§2)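 Emulsion of test compound, water-diluted to predetermined amount, sprayed on soil after sowing (seed depth ~1.5 cm, sterilized diluvial soil). Greenhouse, 25–30° C. Effect graded at three weeks post-spray.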

false cleavers [3] = test: Test Example 4: herbicidal effect by soil treatment (Table 19, symbol Q); assay type: in vivo, false cleavers (Galium spurium); conditions: amount of applied herbicide 320 g/ha
Procedure, shortened: as §2

Italian ryegrass [4] = test: Test Example 5: herbicidal effect by foliage application, plastic box (Table 20, symbol K); assay type: in vivo, Italian ryegrass (Lolium multiflorum); conditions: foliage application, 320 g/ha, three weeks after application
Procedure, shortened: as §1

chickweed [5] = test: Test Example 5: herbicidal effect by foliage application, plastic box (Table 20, symbol P); assay type: in vivo, common chickweed (Stellaria media); conditions: foliage application, 320 g/ha, three weeks after application
Procedure, shortened: as §1

wild oat [6] = test: Test Example 5: herbicidal effect by foliage application, plastic box (Table 20, symbol I); assay type: in vivo, wild oat (Avena fatua); conditions: foliage application, 320 g/ha, three weeks after application
Procedure, shortened: as §1

lambsquarters [7] = test: Test Example 4: herbicidal effect by soil treatment (Table 19, symbol O); assay type: in vivo, lambsquarters (Chenopodium album); conditions: amount of applied herbicide 320 g/ha
Procedure, shortened: as §2

Italian ryegrass [8] = test: Test Example 4: herbicidal effect by soil treatment (Table 19, symbol K); assay type: in vivo, Italian ryegrass (Lolium multiflorum); conditions: amount of applied herbicide 320 g/ha
Procedure, shortened: as §2

southern crabgrass [9] = test: Test Example 5: herbicidal effect by foliage application, plastic box (Table 20, symbol F); assay type: in vivo, southern crabgrass (Digitaria ciliaris); conditions: foliage application, 320 g/ha, three weeks after application
Procedure, shortened: as §1

windgrass [10] = test: Test Example 5: herbicidal effect by foliage application, plastic box (Table 20, symbol L); assay type: in vivo, windgrass (Apera spica-venti); conditions: foliage application, 320 g/ha, three weeks after application
Procedure, shortened: as §1

persian speedwell [11] = test: Test Example 4: herbicidal effect by soil treatment (Table 19, symbol R); assay type: in vivo, Persian speedwell (Veronica persica); conditions: amount of applied herbicide 320 g/ha
Procedure, shortened: as §2

southern crabgrass [12] = test: Test Example 4: herbicidal effect by soil treatment (Table 19, symbol F); assay type: in vivo, southern crabgrass (Digitaria ciliaris); conditions: amount of applied herbicide 320 g/ha
Procedure, shortened: as §2

wild oat [13] = test: Test Example 4: herbicidal effect by soil treatment (Table 19, symbol I); assay type: in vivo, wild oat (Avena fatua); conditions: amount of applied herbicide 320 g/ha
Procedure, shortened: as §2

barnyard grass [14] = test: Test Example 5: herbicidal effect by foliage application, plastic box (Table 20, symbol H); assay type: in vivo, barnyard grass (Echinochloa crus-galli); conditions: foliage application, 320 g/ha, three weeks after application
Procedure, shortened: as §1

blackgrass [15] = test: Test Example 4: herbicidal effect by soil treatment (Table 19, symbol J); assay type: in vivo, blackgrass (Alopecurus myosuroides); conditions: amount of applied herbicide 320 g/ha
Procedure, shortened: as §2

redroot pigweed [16] = test: Test Example 5: herbicidal effect by foliage application, plastic box (Table 20, symbol N); assay type: in vivo, redroot pigweed (Amaranthus retroflexus); conditions: foliage application, 320 g/ha, three weeks after application
Procedure, shortened: as §1

velvetleaf [17] = test: Test Example 5: herbicidal effect by foliage application, plastic box (Table 20, symbol M); assay type: in vivo, velvetleaf (Abutilon theophrasti); conditions: foliage application, 320 g/ha, three weeks after application
Procedure, shortened: as §1

barnyard grass [18] = test: Test Example 4: herbicidal effect by soil treatment (Table 19, symbol H); assay type: in vivo, barnyard grass (Echinochloa crus-galli); conditions: amount of applied herbicide 320 g/ha
Procedure, shortened: as §2

green foxtail [19] = test: Test Example 5: herbicidal effect by foliage application, plastic box (Table 20, symbol G); assay type: in vivo, green foxtail (Setaria viridis); conditions: foliage application, 320 g/ha, three weeks after application
Procedure, shortened: as §1

rice flat sedge = test: Test Example 3: herbicidal effect by foliage application, Wagner pot (Table 18, symbol E); assay type: in vivo, rice flat sedge (Cyperus iria); conditions: 320 g/ha
Procedure, shortened: (§3)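 Plants were sown in alluvial soil held under 0.1–0.5 cm standing water and grown 14 days in a greenhouse at 25–30 °C. An emulsifiable formulation, water-diluted to the set dose, was then sprayed onto the foliage, and effects were scored three weeks later using previously defined criteria.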

false cleavers [20] = test: Test Example 5: herbicidal effect by foliage application, plastic box (Table 20, symbol Q); assay type: in vivo, false cleavers (Galium spurium); conditions: foliage application, 320 g/ha, three weeks after application
Procedure, shortened: as §1

blackgrass [21] = test: Test Example 5: herbicidal effect by foliage application, plastic box (Table 20, symbol J); assay type: in vivo, blackgrass (Alopecurus myosuroides); conditions: foliage application, 320 g/ha, three weeks after application
Procedure, shortened: as §1

chickweed [22] = test: Test Example 4: herbicidal effect by soil treatment (Table 19, symbol P); assay type: in vivo, common chickweed (Stellaria media); conditions: amount of applied herbicide 320 g/ha
Procedure, shortened: as §2

windgrass [23] = test: Test Example 4: herbicidal effect by soil treatment (Table 19, symbol L); assay type: in vivo, windgrass (Apera spica-venti); conditions: amount of applied herbicide 320 g/ha
Procedure, shortened: as §2

green foxtail [24] = test: Test Example 4: herbicidal effect by soil treatment (Table 19, symbol G); assay type: in vivo, green foxtail (Setaria viridis); conditions: amount of applied herbicide 320 g/ha
Procedure, shortened: as §2

Chinese sprangletop = test: Test Example 3: herbicidal effect by foliage application, Wagner pot (Table 18, symbol D); assay type: in vivo, chinese sprangletop (Leptochloa chinensis); conditions: 320 g/ha
Procedure, shortened: as §3

lambsquarters [25] = test: Test Example 5: herbicidal effect by foliage application, plastic box (Table 20, symbol O); assay type: in vivo, lambsquarters (Chenopodium album); conditions: foliage application, 320 g/ha, three weeks after application
Procedure, shortened: as §1

barnyard grass [26] = test: Test Example 3: herbicidal effect by foliage application, Wagner pot (Table 18, symbol H); assay type: in vivo, barnyard grass (Echinochloa crus-galli); conditions: 320 g/ha
Procedure, shortened: as §3

redroot pigweed [27] = test: Test Example 4: herbicidal effect by soil treatment (Table 19, symbol N); assay type: in vivo, redroot pigweed (Amaranthus retroflexus); conditions: amount of applied herbicide 320 g/ha
Procedure, shortened: as §2

## Cc1nn(C)c(=O)c(-c2c(-c3ccc(F)c(F)c3)sc3ccccc23)c1O [1-046]
Persian speedwell [1]
  herbicidal effect grade, R: persian speedwell: 5 (Herbicidal rate of 90% or more (almost completely withered))
Velvetleaf [2]
  herbicidal effect rating, M: velvetleaf: 0 (Herbicidal rate of 5% or less (almost no effect))
False cleavers [3]
  herbicidal effect rating, Q: false cleavers: 5 (Herbicidal rate of 90% or more (almost completely withered))
Italian ryegrass [4]
  herbicidal effect grade, K: Italian ryegrass: 3 (Herbicidal rate of 40% or more and less than 70%)
Chickweed [5]
  herbicidal effect grade, P: chickweed: 5 (Herbicidal rate of 90% or more (almost completely withered))
Wild oat [6]
  herbicidal effect grade, I: wild oat: 3 (Herbicidal rate of 40% or more and less than 70%)
Lambsquarters [7]
  herbicidal effect rating, O: lambsquarters: 0 (Herbicidal rate of 5% or less (almost no effect))
Italian ryegrass [8]
  herbicidal effect rating, K: Italian ryegrass: 0 (Herbicidal rate of 5% or less (almost no effect))
Southern crabgrass [9]
  herbicidal effect grade, F: southern crabgrass: 4 (Herbicidal rate of 70% or more and less than 90%)
Windgrass [10]
  herbicidal effect grade, L: windgrass: 0 (Herbicidal rate of 5% or less (almost no effect))
Persian speedwell [11]
  herbicidal effect rating, R: persian speedwell: 5 (Herbicidal rate of 90% or more (almost completely withered))
Southern crabgrass [12]
  herbicidal effect rating, F: southern crabgrass: 0 (Herbicidal rate of 5% or less (almost no effect))
Wild oat [13]
  herbicidal effect rating, I: wild oat: 0 (Herbicidal rate of 5% or less (almost no effect))
Barnyard grass [14]
  herbicidal effect grade, H: barnyard grass: 4 (Herbicidal rate of 70% or more and less than 90%)
Blackgrass [15]
  herbicidal effect rating, J: blackgrass: 0 (Herbicidal rate of 5% or less (almost no effect))
Redroot pigweed [16]
  herbicidal effect grade, N: redroot pigweed: 5 (Herbicidal rate of 90% or more (almost completely withered))
Velvetleaf [17]
  herbicidal effect grade, M: velvetleaf: 5 (Herbicidal rate of 90% or more (almost completely withered))
Barnyard grass [18]
  herbicidal effect rating, H: barnyard grass: 0 (Herbicidal rate of 5% or less (almost no effect))
Green foxtail [19]
  herbicidal effect grade, G: green foxtail: 4 (Herbicidal rate of 70% or more and less than 90%)
Rice flat sedge
  herbicidal effect on E (rice flat sedge), rating 0-5: 5 (Herbicidal rate of 90% or more (almost completely withered))
False cleavers [20]
  herbicidal effect grade, Q: false cleavers: 5 (Herbicidal rate of 90% or more (almost completely withered))
Blackgrass [21]
  herbicidal effect grade, J: blackgrass: 0 (Herbicidal rate of 5% or less (almost no effect))
Chickweed [22]
  herbicidal effect rating, P: chickweed: 5 (Herbicidal rate of 90% or more (almost completely withered))
Windgrass [23]
  herbicidal effect rating, L: windgrass: 0 (Herbicidal rate of 5% or less (almost no effect))
Green foxtail [24]
  herbicidal effect rating, G: green foxtail: 0 (Herbicidal rate of 5% or less (almost no effect))
Chinese sprangletop
  herbicidal effect on D (Chinese sprangletop), rating 0-5: 0 (Herbicidal rate of 5% or less (almost no effect))
Lambsquarters [25]
  herbicidal effect grade, O: lambsquarters: 4 (Herbicidal rate of 70% or more and less than 90%)
Barnyard grass [26]
  herbicidal effect on H (barnyard grass), rating 0-5: 3 (Herbicidal rate of 40% or more and less than 70%)
Redroot pigweed [27]
  herbicidal effect rating, N: redroot pigweed: 0 (Herbicidal rate of 5% or less (almost no effect))

## CCCC(=O)Oc1c(C)nn(C)c(=O)c1-c1c(-c2ccc(OCC)cc2)sc2cc(OC)ccc12 [3-073]
Persian speedwell [1]
  R: persian speedwell, herbicidal effect grade: 5 (Herbicidal rate of 90% or more (almost completely withered))
Velvetleaf [2]
  M: velvetleaf, herbicidal effect grade: 0 (Herbicidal rate of 5% or less (almost no effect))
False cleavers [3]
  Q: false cleavers, herbicidal effect grade: 2 (Herbicidal rate of 20% or more and less than 40%)
Italian ryegrass [4]
  K: Italian ryegrass, herbicidal effect grade: 0 (Herbicidal rate of 5% or less (almost no effect))
Chickweed [5]
  P: chickweed, herbicidal effect grade: 5 (Herbicidal rate of 90% or more (almost completely withered))
Wild oat [6]
  I: wild oat, herbicidal effect grade: 0 (Herbicidal rate of 5% or less (almost no effect))
Lambsquarters [7]
  O: lambsquarters, herbicidal effect grade: 3 (Herbicidal rate of 40% or more and less than 70%)
Italian ryegrass [8]
  K: Italian ryegrass, herbicidal effect grade: 0 (Herbicidal rate of 5% or less (almost no effect))
Southern crabgrass [9]
  F: southern crabgrass, herbicidal effect grade: 2 (Herbicidal rate of 20% or more and less than 40%)
Windgrass [10]
  L: windgrass, herbicidal effect grade: 0 (Herbicidal rate of 5% or less (almost no effect))
Persian speedwell [11]
  R: persian speedwell, herbicidal effect grade: 4 (Herbicidal rate of 70% or more and less than 90%)
Southern crabgrass [12]
  F: southern crabgrass, herbicidal effect grade: 3 (Herbicidal rate of 40% or more and less than 70%)
Wild oat [13]
  I: wild oat, herbicidal effect grade: 0 (Herbicidal rate of 5% or less (almost no effect))
Barnyard grass [14]
  H: barnyard grass, herbicidal effect grade: 0 (Herbicidal rate of 5% or less (almost no effect))
Blackgrass [15]
  J: blackgrass, herbicidal effect grade: 0 (Herbicidal rate of 5% or less (almost no effect))
Redroot pigweed [16]
  N: redroot pigweed, herbicidal effect grade: 3 (Herbicidal rate of 40% or more and less than 70%)
Velvetleaf [17]
  M: velvetleaf, herbicidal effect grade: 3 (Herbicidal rate of 40% or more and less than 70%)
Barnyard grass [18]
  H: barnyard grass, herbicidal effect grade: 3 (Herbicidal rate of 40% or more and less than 70%)
Green foxtail [19]
  G: green foxtail, herbicidal effect grade: 0 (Herbicidal rate of 5% or less (almost no effect))
False cleavers [20]
  Q: false cleavers, herbicidal effect grade: 4 (Herbicidal rate of 70% or more and less than 90%)
Blackgrass [21]
  J: blackgrass, herbicidal effect grade: 0 (Herbicidal rate of 5% or less (almost no effect))
Chickweed [22]
  P: chickweed, herbicidal effect grade: 4 (Herbicidal rate of 70% or more and less than 90%)
Windgrass [23]
  L: windgrass, herbicidal effect grade: 0 (Herbicidal rate of 5% or less (almost no effect))
Green foxtail [24]
  G: green foxtail, herbicidal effect grade: 3 (Herbicidal rate of 40% or more and less than 70%)
Lambsquarters [25]
  O: lambsquarters, herbicidal effect grade: 2 (Herbicidal rate of 20% or more and less than 40%)
Redroot pigweed [27]
  N: redroot pigweed, herbicidal effect grade: 4 (Herbicidal rate of 70% or more and less than 90%)
